Our source for the half-life and EC50 values is ChEMBL document CHEMBL5233278, “Recent Advances in the Medicinal Chemistry of Farnesoid X Receptor” (J Med Chem, 2021).

Usually half-life stands for the time needed for the level to fall by half in the phase considered. One may read the EC50 as the concentration at which the effect is half-maximal. Higher therefore signals lower potency in that assay.

Series [1] is described as follows: Stability in human plasma assessed as half life. The class given is ADME, cell-free.
The target of series [2] is T1, Bile acid receptor (Homo sapiens, UniProt Q96RI1).
T1 sequence (Q96RI1 whole entry): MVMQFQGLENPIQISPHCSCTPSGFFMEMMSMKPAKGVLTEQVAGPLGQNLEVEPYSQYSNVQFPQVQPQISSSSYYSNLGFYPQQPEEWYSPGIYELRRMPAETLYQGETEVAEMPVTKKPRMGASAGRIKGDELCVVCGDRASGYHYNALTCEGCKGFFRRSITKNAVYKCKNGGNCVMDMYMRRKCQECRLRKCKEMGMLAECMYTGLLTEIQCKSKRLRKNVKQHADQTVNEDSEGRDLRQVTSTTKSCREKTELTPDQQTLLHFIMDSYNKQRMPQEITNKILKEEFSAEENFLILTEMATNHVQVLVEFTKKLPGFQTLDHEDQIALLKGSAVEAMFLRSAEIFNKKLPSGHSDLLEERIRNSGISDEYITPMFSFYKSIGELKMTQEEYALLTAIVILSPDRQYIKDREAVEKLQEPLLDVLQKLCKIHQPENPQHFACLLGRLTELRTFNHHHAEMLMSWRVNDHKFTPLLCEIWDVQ
Briefly: Agonist activity at human FXR in expressed in CHO cells by luciferase reporter assay. The class given is cell-based. A general note: In a reporter assay the amount or activity of a reporter protein is the signal.

The target in series [3] is T1, Bile acid receptor. Briefly: Agonist activity at FXR in HEK293T cells incubated for 24 hrs by Steady-Glo luciferase assay. The class given is cell-based.
Series [4] deals with T1, Bile acid receptor. Briefly: Agonist activity at FXR in human HeLa cells incubated for 24 hrs by Dual-Glo luciferase assay. The class given is cell-based.
Series [5] has as its target T2, Peroxisome proliferator-activated receptor delta (Homo sapiens, UniProt Q03181).
T2 sequence (Q03181 whole entry): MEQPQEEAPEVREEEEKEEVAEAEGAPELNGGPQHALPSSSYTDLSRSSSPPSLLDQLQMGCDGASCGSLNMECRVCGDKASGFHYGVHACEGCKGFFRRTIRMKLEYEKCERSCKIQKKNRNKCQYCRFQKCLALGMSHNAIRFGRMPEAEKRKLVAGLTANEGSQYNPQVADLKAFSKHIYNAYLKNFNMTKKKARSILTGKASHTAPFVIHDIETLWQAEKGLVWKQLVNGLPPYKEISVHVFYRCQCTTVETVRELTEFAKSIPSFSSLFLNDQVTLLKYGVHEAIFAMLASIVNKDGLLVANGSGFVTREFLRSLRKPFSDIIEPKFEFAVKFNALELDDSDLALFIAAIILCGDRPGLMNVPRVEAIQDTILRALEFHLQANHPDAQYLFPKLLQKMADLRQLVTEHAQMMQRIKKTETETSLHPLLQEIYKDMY
Briefly: Agonist activity at human PPARdelta expressed in HEK293T cells incubated for 12 to 14 hrs by Dual-Glo luciferase assay. The class given is cell-based.

`Cc1ccc(Cl)cc1N1CCN(C(=O)C23CC4CC(CC(C4)C2)C3)CC1`: the half-life in series [1] was > 8.33 h.

Turning to `CC[C@H]1[C@@H](O)[C@@H]2[C@H](CC[C@]3(C)[C@@H]([C@H](C)COC(=O)NS(=O)(=O)c4ccc(OC(C)C)cc4)CC[C@@H]23)[C@@]2(C)CC[C@@H](O)C[C@@H]12`, at Bile acid receptor [2], the EC50 was < 1 nM.

On Bile acid receptor [3], `CC(C)COc1ccc(-c2nnc(-c3ccc(C(=O)O)cc3)o2)cc1` displayed an EC50 of 205 nM.

As to `CC(C)c1onc(-c2c(Cl)cccc2Cl)c1COc1ccc(CNc2ccc(CC(=O)O)cc2)c(Cl)c1`, the concentration for a half-maximal effect (EC50) on Bile acid receptor [4] is 940 nM; in series [5], 1500 nM.
